# Data as given in patent US20080268477A1, “Antibody Reactive Specifically to Age Derived from 3,4-Dge” (JMS CO., LTD., priority 2005, published 2008).
# Legend:
# [1] = system: Human peritoneal mesothelial cells (HPMCs); assay: cytotoxic test of AGE-proteins (WST-1); type: cell-based; conditions: 1 mg/mL AGE-protein, four days
# Protocol: In order to examine the biological activities of AGE-proteins derived from various carbonyl compounds, a cytotoxic test was carried out. The AGE-proteins used herein were 3,4-DGE-BSA, MGO-BSA, GO-BSA, and AA-BSA that had been prepared in the same manner as in Example 3.
# Human peritoneal mesothelial cells (HPMCs) that had been suspended in FBS-M199 medium were seeded into a 96-well plate (manufactured by Iwaki) in an amount of 3400 cells/well and then were cultured overnight. Adherent cells in each well were exposed to M199 medium (0.1 ml/well) containing 8.4% FBS in which AGE-proteins had been dissolved in such a manner as to be 1 mg/mL, and were cultured for four days. After completion of the exposure, the medium was removed. Thereafter, the adherent cells were cultured in M199 medium containing a 10% chromogenic substrate (Trade Name: WST-1; manufactured by TAKARA BIO, INC.). Then the absorbance at a wavelength of 450 nm was measured 40 minutes later and thereby the viable cell count was determined. The result is shown in the graph in FIG. 15. In FIG. 15, “DGE-BSA” denotes “3,4-DGE-BSA”.
# BSA [2] = target: T1, BSA (Bos taurus, UniProt P02769); assay: reactivity with protein by fluorescence intensity (Reference Example 2); design: species or system bovine; conditions: 30 mmol/L carbonyl compound, BSA 10 mg/ml, 37° C., 24 hours
# T1 construct: purchased SIGMA A-0281
# T1 sequence (P02769 25-607): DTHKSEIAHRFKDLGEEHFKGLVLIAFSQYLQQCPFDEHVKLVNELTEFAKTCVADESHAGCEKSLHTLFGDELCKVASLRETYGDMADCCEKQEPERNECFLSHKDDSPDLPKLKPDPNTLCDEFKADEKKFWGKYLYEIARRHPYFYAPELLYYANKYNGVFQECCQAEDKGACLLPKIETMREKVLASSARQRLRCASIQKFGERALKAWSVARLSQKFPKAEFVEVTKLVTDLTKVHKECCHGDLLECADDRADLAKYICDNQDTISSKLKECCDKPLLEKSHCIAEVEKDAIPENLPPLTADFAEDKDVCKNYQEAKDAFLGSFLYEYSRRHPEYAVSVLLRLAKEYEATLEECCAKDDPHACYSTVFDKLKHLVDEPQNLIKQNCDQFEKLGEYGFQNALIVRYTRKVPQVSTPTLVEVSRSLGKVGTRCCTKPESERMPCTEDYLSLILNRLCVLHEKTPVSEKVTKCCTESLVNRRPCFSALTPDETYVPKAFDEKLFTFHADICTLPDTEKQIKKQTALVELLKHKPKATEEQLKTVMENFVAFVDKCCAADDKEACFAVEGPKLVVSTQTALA
# Protocol: BSA was dissolved in PBS (pH 7.4) so as to be 10 mg/ml. Various carbonyl compounds each were added thereto in such a manner as to have a concentration of 30 mmol/L. Then they were allowed to react at 37° C. for 24 hours. After the reaction, denaturation (AGE formation) of the BSA was evaluated according to the fluorescence intensity (at an excitation wavelength of 360 nm and a fluorescence wavelength of 430 nm) of the reaction solutions.
# BSA [3] = target: T1, BSA; assay: fluorescence intensity of reaction solution of carbonyl compound and BSA (Reference Example 1); design: species or system bovine; conditions: excitation 360 nm, fluorescence 430 nm
# Protocol: AGEs were formed from proteins, BSA, using carbonyl compounds (3,4-DGE, MGO, GO, 3-DG, and Glu). First, BSA (manufactured by SIGMA; Trade Name: A-0281) was dissolved in PBS (pH 7.4) so as to have a concentration of 5 mg/ml (6.2 mM of basic amino acid residues). Thus a BSA solution was prepared. Then each carbonyl compound was added to the BSA solution so as to have a concentration of 25 mM (4-equivalent relative to the basic amino acid residues in the BSA). This was incubated at 37° C. for predetermined times (2, 4, 8, 24, 72, and 168 hours). […]
# The reaction solutions incubated as described above were sampled and these reaction solutions thus sampled were applied to desalting columns (Trade Name: PD-10, manufactured by Amersham Pharmacia Biotech) to be desalted. With respect to the reaction solutions thus desalted, the BSA concentration was measured using BCA protein assay kit (manufactured by Pierce). […] Then the fluorescence intensity was measured at an excitation wavelength of 360 nm and a fluorescence wavelength of 430 nm (measuring apparatus: Trade Name SPECTRAFLUOR PLUS, manufactured by TECAN). […]
# BSA [4] = target: T1, BSA; assay: amino acid analysis of Arg and Lys residues in reaction product; design: species or system bovine; conditions: residual ratio vs untreated native BSA
# Protocol: The aforementioned sample solutions were freeze-dried and then were acid-hydrolyzed in 6N hydrochloric acid (120° C., 24 hours). According to a conventionally known method, these were derivatized with dansyl chloride and were isolated with HPLC. Then the amounts of arginine (Arg) and lysine (Lys) residues in the samples were determined (n=3). FIG. 11(A) is a graph showing the residual ratios of the Arg residues, while FIG. 11(B) is a graph showing the residual ratios of the Lys residues. The residual ratio indicates a percentage that is obtained with the amount of residues in untreated native BSA being taken as 100%.
# BSA [5] = target: T1, BSA; assay: ELISA for known AGEs (pentosidine, CML, MRX) in reaction product; design: species or system bovine
# Protocol: With respect to the above-mentioned sample solutions obtained using the carbonyl compounds (3,4-DGE, 3-DG, GO, and MGO), it was evaluated by ELISA whether pentosidine, carboxymethyllysine (CML), and Maillard reaction products (MRX: 8-hydroxy-5-methyldihydrothiazolo[3,2-alpha]) that were known AGEs had been produced or not. As a result, in the reaction solution obtained using GO, production of CML of 3.025 molecules per BSA molecule was found already after 24 hours incubation and production of CML of 3.7 molecules per BSA molecule was found after 168 hours incubation. In the reaction solution obtained using MGO, pentosidine of 0.0028 molecule per BSA molecule was found after 168 hours incubation. […] Accordingly, it can be said that the AGEs formed with 3,4-DGE are clearly different from conventionally known AGEs.
# BSA [6] = target: T1, BSA; assay: isoelectric focusing of reaction product; design: species or system bovine; conditions: reaction product with BSA
# Protocol: A pI marker was electrophoresed beforehand and then a calibration curve between pI and mobility was created. Then the aforementioned sample solutions also were electrophoresed. With a region stained deepest in each sample being taken as the center of the band, the isoelectric point was calculated using the calibration curve.
# BSA [7] = target: T1, BSA; assay: appearance (browning) of reaction solution of carbonyl compound and BSA; design: species or system bovine; conditions: 25 mM carbonyl compound, BSA 5 mg/ml, 37° C.; for browning of reaction solution: 168 hours
# Protocol: AGEs were formed from proteins, BSA, using carbonyl compounds (3,4-DGE, MGO, GO, 3-DG, and Glu). First, BSA (manufactured by SIGMA; Trade Name: A-0281) was dissolved in PBS (pH 7.4) so as to have a concentration of 5 mg/ml (6.2 mM of basic amino acid residues). Thus a BSA solution was prepared. Then each carbonyl compound was added to the BSA solution so as to have a concentration of 25 mM (4-equivalent relative to the basic amino acid residues in the BSA). This was incubated at 37° C. for predetermined times (2, 4, 8, 24, 72, and 168 hours). The respective carbonyl compounds used herein were 500 mM 3,4-DGE aqueous solution (prepared in house), 40% MGO aqueous solution (manufactured by SIGMA), 40% GO aqueous solution (manufactured by Wako Pure Chemical Industries, Ltd.), 3-DG (manufactured by Dojindo Laboratories Co., Ltd.), and Glu (Pharmacopeia, manufactured by San-ei Sucrochemical Co, Ltd.). The BSA solution was incubated in the same manner as described above, with no carbonyl compounds being added thereto. This was used as a control. The appearances of the reaction solutions obtained after 168 hours incubation are shown in the photograph in FIG. 9.
# BSA [8] = target: T1, BSA; assay: SDS-PAGE of reaction product; design: species or system bovine; conditions: samples of 2 to 168 hours reaction
# Protocol: The samples obtained using 3,4-DGE and MGO each were subjected to SDS-PAGE. The results are shown in the electrophoretograms in FIG. 13. […] The lanes show the results with respect to the molecular-weight marker, native BSA, and samples (2, 4, 8, 24, 72, and 168 hours) sequentially from the left.
compound,measurement,setting,value
"3,4-DGE-BSA: AGE-protein formed from bovine serum albumin with 3,4-DGE",activity of the cells (viable cell count),[1],approximately 25%
"O=CC(=O)C=CC(O)CO (stereo not shown) [3,4-DGE, 3,4-dideoxyglucosone-3-ene]",fluorescence of BSA solution (AGE formation),BSA [2],very strong fluorescence
same,reaction time at which fluorescence nearly achieved equilibrium,BSA [3],~24 h
same,fluorescence intensity,BSA [3]; compared to other carbonyl compounds,very high fluorescence intensity
same,free Arg and Lys residues in reaction product,BSA [4],reduced
same,"production of CML, pentosidine, MRX",BSA [5]; ELISA of reaction solution,"production of neither CML, pentosidine, or MRX was found"
same,change in isoelectric point,BSA [6],shift toward the acidic side after 24 hours reaction
same,time until reaction solution was colored,BSA [7],approximately two
same,browning of reaction solution,BSA [7],deep brown
same,change in SDS-PAGE band,BSA [8],disturbance in the band is observed after 2 to 4 hours reaction
"O=CC(=O)C[C@H](O)[C@H](O)CO [Example 3-DG, 3-deoxyglucosone]",browning of reaction solution,BSA [7],observed
"O=CC=O [GO, glyoxal]",production of CML,BSA [5]; after 24 hours incubation,3.025 molecules per BSA molecule
same,production of CML,BSA [5]; after 168 hours incubation,3.7 molecules per BSA molecule
same,browning of reaction solution,BSA [7],observed
"CC(=O)C=O [MGO, methylglyoxal]",pentosidine,BSA [5]; after 168 hours incubation,0.0028 molecule per BSA molecule
same,browning of reaction solution,BSA [7],observed
